Data published in patent US11542316B2, “S-Arrestin peptides and therapeutic uses thereof” (APITOPE INTERNATIONAL NV, priority 2017, dated 2023).
Ends that are not written are not given here.

What was measured:
[1] = system: LN cells and splenocytes upon SAg or peptide restimulation; assay: Ex vivo tolerization experiment, DR2tg mice; type: in vivo; details: DR2 mice, IFN-γ
Experimental: FIG. 7: Ex vivo tolerisation protocol. Mice are injected subcutaneously in the flank with 0.1 μg/ml, 1 μg/ml and 10 μg/ml peptide on days −15, −13 and −11, followed by 3 injections of 100 μg/ml on days −8, −6 and −4 (escalating dose regime). On day 0, mice are immunized subcutaneously at the base of the tail with SAg/CFA or peptide/CFA. Mice are sacrificed 10 days after immunization to measure proliferation of LN cells and splenocytes upon SAg or peptide restimulation. LN, lymph nodes.
FIG. 11: Ex vivo tolerance induction by HIP-9K1-KKK apitope. DR2 mice are injected subcutaneously in the flank with 0.1 μg/ml, 1 μg/ml and 10 μg/ml HIP-9K1-KKK on days −15, −13 and −11, followed by 3 injections of 100 μg/ml on days −8, −6 and −4 (escalating dose regime). On day 0, mice are immunized subcutaneously at the base of the tail with HIP-9FL/CFA. Mice are sacrificed 10 days after immunization to measure proliferation of LN cells and splenocytes upon SAg or peptide restimulation. Data represent mean±SEM of the concentration values for the PBS-treated mice (black lines) and peptide-treated mice (color lines). IFN-γ production expressed as IFN-γ concentration (pg/ml). Two-way ANOVA was used to measure overall treatment effects on T cell activation and p-values are written in the graphs. Bonferonni post-hoc testing was used and significant differences are indicated in the graphs (* p<0.05; **** p<0.0001). LN, lymph nodes. (A) Tolerisation against SAg in LN. (B) Tolerisation against HIP-9FL and HIP-9K1-KKK in LN. (C) Tolerisation against SAg in spleen. (D) Tolerisation against HIP-9FL and HIP-9K1-KKK in spleen.
FIG. 13: Ex vivo tolerance induction by HIP-12G1-KKK apitope. DR2 mice are injected subcutaneously in the flank with 0.1 μg/ml, 1 μg/ml and 10 μg/ml HIP-12G1-KKK on days −15, −13 and −11, followed by 3 injections of 100 μg/ml on days −8, −6 and −4 (escalating dose regime). On day 0, mice are immunized subcutaneously at the base of the tail with HIP-12AK/CFA. Mice are sacrificed 10 days after immunization to measure proliferation of LN cells and splenocytes upon SAg or peptide restimulation. Data represent mean±SEM of the concentration values for the PBS-treated mice (black lines) and peptide-treated mice (color lines). IFN-γ production expressed as IFN-γ concentration (pg/ml). Two-way ANOVA was used to measure overall treatment effects on T cell activation and p-values are written in the graphs. Bonferonni post-hoc testing was used and significant differences are indicated in the graphs (** p<0.01; *** p<0.001: **** p<0.0001). LN, lymph nodes. (A) Tolerisation against HIP-12G1-KKK and HIP-12G1 in LN. (B) Tolerisation against HIP-12G1-KKK in spleen.
DR3tg or DR2tg mice were injected subcutaneously in the flank region with 0.1 μg, 1 μg and 10 μg of peptide on days −15, −13 and −11 respectively, followed by 3 injections of 100 μg peptide on days −8, −6 and −4 (dose escalation schedule). On day 0, the mice were immunised subcutaneously in the base of the tail with 50 μg antigen (parental peptide) emulsified in CFA (peptide/CFA). Ten days after immunisation, draining lymph nodes (LN) and spleens were harvested. LN cells and splenocytes were isolated and cultured in X-vivo 15 medium (supplemented with 2 mM L-glutamine, 50 U/mL penicillin and 50 U/mL streptomycin; Lonza) in 96-well flat bottom plates. To investigate antigen-induced cell proliferation, 0.5×10^6 cells/well were cultured (200 μl/well) for 72 hours with different antigen concentrations (0-25 μg/ml) or with 12.5 μg/ml purified protein derivative (PPD; priming control; Statens serum institut, Copenhagen, Denmark). After 72 hours, supernatant was harvested and stored at −80° C. until further analysis. IFN-γ concentrations in supernatants were assessed by cytokine ELISA (R&D Systems, Abingdon, UK) to measure cell activation.

[2] = system: T cell line with MGAR APC; assay: Antigen Processing Independent Presentation System (APIPS) assay, fresh or fixed MGAR APC; type: cell-based, DR2 mice; details: DR2 T cell line, IFN-γ, 24 h
Experimental: FIG. 4: Identification of apitopes within HIP-9FL. DR2 mice were immunized with HIP-9FL-KKK and a T cell line was established. Ten days after immunization the LN and spleens were harvested and cultured with different concentrations of peptide (0.1-1-2.5 and 5 μg/ml); 2×10^6 cells/ml APCs+1×10^6 cells/ml CD4 T cells per well. At day 7 the cells were re-stimulated with the same concentrations of peptide. On day 21 an APIPS test was done using commercial APC (MGAR). After 24 h, antigen-induced T cell activation was measured by IFN-γ ELISA and shown as OD values. The graph represents the mean of duplicate measurements±SEM. LN, lymph nodes; APC, Antigen presenting cell; APIPS, Antigen Processing Independent Presentation System.
Antigen-specific clones or TCL were tested for their reactivity to the peptides, presented by fixed or not fixed (fresh) cells (VAVY or MGAR) (=APCs). 5×10^4 cells from the individual clones were cultured with 10 μg/ml peptide and 5×10^4 fixed or fresh APCs. In the case of TCL, 5×10^4 cells were cultured with 10 μg/ml and 25 μg/ml peptide and 2.5×10^4 fixed or fresh APCs. To fixate APCs, cells were incubated with 0.5% paraformaldehyde (Merck, Darmstadt, Germany) (pH7) for 5 min at room temperature (RT). The fixation reaction was stopped by adding 0.4M glycine (Sigma-Aldrich) and washing the cells in RPMI-10% FCS. Additionally, reactivity towards human SAg protein (QBiologicals, Eurofins Amatsigroup, Ghent, Belgium) was measured to identify cryptic epitopes. After 24 h or 48 h, antigen-induced IFN-γ or IL-2 production (respectively) was measured by ELISA (R&D Systems, Abingdon, UK).
DR3tg or DR2tg mice were immunised subcutaneously in the base of the tail with 50 μg peptide emulsified in CFA (peptide/CFA). Ten days after immunisation, draining lymph nodes (LN) and spleens were harvested. […] At day 7, TCL cells were counted and cultured with fresh APC, peptides and IL-2, all at the same concentrations as above. […]

KKKAFVEQVANVVLKKK-NH2 [HIP-9K1-KKK, KKKAFVEQVANVVLKKK]
tolerization against the peptide itself / parental peptide ([1]; LN): tolerization induced | tolerization against SAg ([1]; LN, escalating dose regime s.c.): tolerization induced | tolerization against SAg ([1]; spleen): Tolerance is also induced | tolerization against the peptide itself ([1]; spleen): Tolerance is also induced | behaves as apitope (response to peptide presented by fresh or fixed APC) [2]: behave as apitopes
